We go through three substances from patent US5734014A, “Elafin derivative” (Tsumura & Co., priority 1992, dated 1998).

One data set relates to elastase. Put plainly: Elastase inhibiting activity of purified recombinant elafin (Referential Examples 1 and 2). Type of data set: biochemical. The conditions noted are these: elafin produced by Escherichia coli, purified by reverse phase HPLC.
In another data set the target is T1, neutrophilic elastase (Homo sapiens, UniProt P08246).
T1 construct: purchased Elastin Products Co., Inc
T1 sequence (P08246 30-267): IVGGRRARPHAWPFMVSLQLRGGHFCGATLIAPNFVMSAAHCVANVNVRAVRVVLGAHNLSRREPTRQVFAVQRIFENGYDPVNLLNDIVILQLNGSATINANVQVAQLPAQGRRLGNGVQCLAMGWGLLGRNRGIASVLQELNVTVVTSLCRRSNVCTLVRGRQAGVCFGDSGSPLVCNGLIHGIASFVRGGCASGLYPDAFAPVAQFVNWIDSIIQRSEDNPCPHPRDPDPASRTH
Briefly: Test 1: neutrophilic elastase inhibiting activity of non-oxidized and oxidized elafins (AAPV-pNA substrate). It counts as biochemical. On the procedure:
Natural elafin and the elafin derivatives were oxidized, and variations in their inhibiting activity against neutrophilic elastase were investigated. Oxidative reaction solutions of natural elafin and the elafin derivatives as elastase inhibitors were each prepared by adding 220 μM of H2 O2 and 6 nM of myeloperoxidase (product of Elastin Products Co., Ltd.) to 250 μl of a phosphate buffer (product of TAKARA SHUZO CO., LTD.) which contained 5 μg of the corresponding elafin or elafin derivative, incubating the resulting mixture at 37° C. for 20 minutes and then adding the same volume of a reaction terminating solution (catalase 0.2 mg/ml, 5 mM methionine).
Further, the measurement of elastase activity was conducted as will be described below by using 5-100 μl of the oxidative reaction solution (inhibitor concentration: 10 μg/ml) of natural elafin and the elafin derivatives prepared as described above.

A further data set relates to endotoxin-treated mice. Briefly: Test 3: survival rate in mouse endotoxin shock model. It counts as in vivo, ICR male mice. The conditions noted are these: test substance i.v. four times, survivors/10 mice. The procedure:
Using a mouse endotoxin shock model, effects of the elafin derivative according to this invention on the survival rate were investigated while using natural elafin and urinastatin, which is a urinary trypsin inhibitor having anti-elastase action, as comparative substances. After endotoxin was administered at 6 mg/Kg to the caudal veins of ten 7 weeks-old ICR male mice (CHARLES RIVER JAPAN, INC.) in each group, the mice were administered with one of the test substance. Their survival rate was observed along the passage of time. The test substance was administered to the caudal veins of the mice four times in total, that is, 10 minutes before the administration of endotoxin and 3 hours, 6 hours and 12 hours after its administration.
Employed as the test substances were natural elafin, the elafin derivative according to the present invention in which the methionine at the 25th had been modified to leucine (hereinafter called "L-elafin") and urinastatin ("MIRACLID"™;product of MOCHIDA PHARMACEUTICAL CO., LTD.; hereinafter called "UTI").
Natural elafin and L-elafin were each dissolved in a buffer of 20 mM sodium acetate physiological saline, in which 1% bovine serum albumin had been added, whereas UTI was dissolved in the physiological saline.
As a control, a buffer of 20 mM sodium acetate physiological saline, in which 1% bovine serum albumin had been added, was used.

Setting [1] is: 12 hrs after administration of endotoxin (6 mg/Kg, caudal vein).
Where [2] appears, read: 14 hrs after administration of endotoxin (6 mg/Kg, caudal vein).
The mark [3] stands for this setting: 16 hrs after administration of endotoxin (6 mg/Kg, caudal vein).
[4] abbreviates: 18 hrs after administration of endotoxin (6 mg/Kg, caudal vein).
[5] abbreviates: 20 hrs after administration of endotoxin (6 mg/Kg, caudal vein).
[6] abbreviates: 22 hrs after administration of endotoxin (6 mg/Kg, caudal vein).
[7] abbreviates: 24 hrs after administration of endotoxin (6 mg/Kg, caudal vein).
Where [8] appears, read: 26 hrs after administration of endotoxin (6 mg/Kg, caudal vein).
Where [9] appears, read: 28 hrs after administration of endotoxin (6 mg/Kg, caudal vein).
Setting [10] is: 30 hrs after administration of endotoxin (6 mg/Kg, caudal vein).
Where [11] appears, read: 36 hrs after administration of endotoxin (6 mg/Kg, caudal vein).
The mark [12] stands for this setting: 48 hrs after administration of endotoxin (6 mg/Kg, caudal vein).

Take “Reduced elafin: elafin in the completely reduced form, before formation of S--S bonds (AQEPVKGPVSTKPGSCPIILIRCAMLNPPNRCLKDTDCPGIKKCCEGSCGMACFVPQ)”: the elastase inhibiting activity result in the data set on elastase is listed as “did not show any inhibiting activity”.

As to “Natural elafin: 57-residue elastase inhibitor isolated from psoriatics (SEQ ID NO:2); produced recombinantly in Escherichia coli or yeast (AQEPVKGPVSTKPGSCPIILIRCAMLNPPNRCLKDTDCPGIKKCCEGSCGMACFVPQ)”, the elastase inhibiting activity entry in the data set with elastase was “strong inhibiting activity”. Besides, the stability to oxidation result in the data set with neutrophilic elastase (general statement of the inventors' findings) is reported as “unstable to oxidation”. The “variation in inhibiting activity against neutrophilic elastase by oxidation” value with neutrophilic elastase (oxidized with 220 μM H2O2 and 6 nM myeloperoxidase, 37° C., 20 minutes, FIG. 3) was “significantly decrease”. Moreover, the Survival rate in the data set with endotoxin-treated mice (setting [1]) is listed as 10/10; in the data set on endotoxin-treated mice (setting [2]), 10/10; in the data set with endotoxin-treated mice (setting [3]) it was 9/10; in the data set with endotoxin-treated mice (setting [4]) it was 8/10; with endotoxin-treated mice (setting [5]), 5/10; in the data set on endotoxin-treated mice (setting [6]), 5/10. Moreover, the Survival rate with endotoxin-treated mice (setting [7]) is listed as 3/10; with endotoxin-treated mice (setting [8]) it was 2/10; in the data set with endotoxin-treated mice (setting [9]), 1/10; with endotoxin-treated mice (setting [10]), 0/10; in the data set on endotoxin-treated mice (setting [11]), 0/10; in the data set on endotoxin-treated mice (setting [12]) it was 0/10.

“urinastatin (MIRACLID) [UTI, product of MOCHIDA PHARMACEUTICAL CO., LTD]”: the Survival rate with endotoxin-treated mice (setting [1]) is on record as 10/10; in the data set on endotoxin-treated mice (setting [2]), 10/10; with endotoxin-treated mice (setting [3]), 8/10; in the data set on endotoxin-treated mice (setting [4]) it was 8/10; in the data set on endotoxin-treated mice (setting [5]), 4/10; in the data set with endotoxin-treated mice (setting [6]), 4/10. The Survival rate in the data set on endotoxin-treated mice (setting [7]) is 2/10; with endotoxin-treated mice (setting [8]), 1/10; in the data set on endotoxin-treated mice (setting [9]), 0/10; in the data set on endotoxin-treated mice (setting [10]) it was 0/10; in the data set with endotoxin-treated mice (setting [11]), 0/10; with endotoxin-treated mice (setting [12]), 0/10.
